{
  "source": "patent US9655879B2",
  "about": "“Heteroarylcarboxylic acid ester derivative” (EA Pharma Co., Ltd., priority 2012, dated 2017)",
  "data": [
    {"tested_on": "Zucker Fatty rats", "test": "Evaluation of hypoglycemic action", "assay_type": "in vivo, rat", "conditions": "gavage 3 mg/kg, HCl salt form, 2 or 4 hours after dosing", "description": "Zucker Fatty rats (male, 11-19 week-old, Charles River Japan, Inc.) known to spontaneously develop hyperglycemia were randomly assigned to the groups (6 per group). The animals were individually housed in a polycarbonate cage and allowed to drink water freely from a watering bottle. The animals in the compound groups were gavaged with compound No. 10, 87, 19, or 69 at the dose of 3 mg/kg. These compounds were used as HCl salt form thereof, converted by the method according to Example 3, step 6 from TFA salt form thereof upon the necessity. The animals in the control group were only treated with the vehicle (0.5% methylcellulose). Animals were allowed free access to the feed (CRF-1, Oriental Yeast Co., Ltd.) during the experiment. An aspirate of the blood (6 μL) was collected from the tail vein on the time point of immediately before dosing (time 0) as well as 2, 4, and 8 hours after dosing. The blood glucose levels were determined with ACCU-CHEK Aviva (Roche Diagnostics K.K.).", "values": [
      {"smiles": "CCCN(CC(=O)O)C(=O)C(C)(C)Cc1ccc(C(=O)Oc2ccc(C(=N)N)cc2F)s1.Cl", "note": "[Compound 10, N-{3-[5-(4-amidino-2-fluorophenoxycarbonyl)thiophen-2-yl]-2,2-dimethylpropionyl}-N-propylglycine hydrochloride]", "blood glucose levels compared with vehicle group": "significantly decreased"},
      {"smiles": "CCC(CC)(Cc1ccc(C(=O)Oc2ccc(C(=N)N)cc2F)s1)C(=O)N[C@@H](CC(=O)O)C(=O)O.Cl", "note": "[Compound 19]", "blood glucose levels compared with vehicle group": "significantly decreased"},
      {"smiles": "CC(C)(Cc1ccc(C(=O)Oc2ccc(C(=N)N)cc2F)s1)C(=O)N[C@@H](C(=O)O)c1ccc(O)cc1", "note": "[Compound 69]", "blood glucose levels compared with vehicle group": "significantly decreased"}
    ]}
  ]
}
